In US20230040247A1, “COMPOUNDS FOR TREATING NEURODEGENERATIVE DISEASES” (Amabiotics, priority 2019, published 2023):

Test system: endogenous a-synuclein phosphorylation at serine 129
Experiment: huPFFs-induced endogenous a-synuclein phosphorylation at serine 129 in primary cortical cultures (EP1536Y immunofluorescence)
Type: cell-based, mouse
Procedure: The study was designed to evaluate the effects of queuine in an in vitro cell-based experimental model of synucleinopathy. The study aimed to evaluate the impact of queuine on the experimental synucleinopathy, in particular of the Lewy body type, induced by exogenous human preformed a-synuclein fibrils (huPFFs) in cortical cultures of wild-type (WT) mice (Volpicelli-Daley et al. (2011) Neuron. 72:57-7).
Queuine was evaluated for its capability to afford protection against the induction of endogenous a-synuclein phosphorylation at serine 129 (a surrogate marker of de novo a-synuclein aggregation) triggered by exposure to exogenous human recombinant (unphosphorylated) a-synuclein preformed fibrils (huPFFs).
Primary cultures of dissociated cortices from embryonic day E18 WT mouse embryos were used as the biological system. Timed pregnant female mice were received from Charles River Laboratories 2 days before initiation of the primary culture. […] At 30 DIV, the neuronal cultures were fixed with PFA, and the effects of the treatments were evaluated by performing two double immunostainings: • (i) D37A6/Syn1 to detect total rodent a-synuclein/human plus rodent non aggregated a-synuclein; • (ii) EP1536Y/Syn211 to detect rodent and human a-synuclein phosphorylated at S129/total human a-synuclein.
The induction of a-synuclein phosphorylation was quantified by measuring the accumulation of phospho-a-synuclein (length of the phospho-a-synuclein-positive neurite network, number of phospho-a-synuclein positive cell bodies).
The experimental conditions were performed in quadruplicate (for compound-treated conditions+/−huPFFs) and triplicate (for controls+/−huPFFs) wells. An array of nine individual microscopic fields were acquired in each single well, and 3 channels were recorded for each field (green fluorescence excited @488 nm, red fluorescence excited @594 nm, and phase contrast). […]
To further evaluate the effects of queuine, the EP1536Y signal was segmented to quantify the phospho-a-synuclein positive neurites. […]

“7-(3,4-trans-4,5-cis-dihydroxy-1-cyclopenten-3-ylaminomethyl)-7-deazaguanine [queuine]” was tested, and the “effect on untreated neurones (induction of synuclein phosphorylation at S129)” value (WT mouse cortical neurones without huPFFs, concentration range tested (10 μM, 1 μM, 0.1 μM)) was “no effect”, the “EP1536Y immunofluorescence signal, representative of the phosphorylation of a-synuclein” value (WT mouse cortical neurons exposed to 10 nM huPFFs, queuine pretreatment at 100 nM compared to control (FIG. 1)) was “decreased” and the “decrease of a-synuclein phosphorylation at S129 induced by huPFFs” value (huPFFs-treated (10 nM) WT mouse cortical neurones, all doses tested (10 μM, 1 μM, 0.1 μM), normalised to huPFFs condition (FIG. 2), significant) was “approx. −50%”.
